Our source for the inhibition values is patent US6797672B2, “Fungicidal compositions based on fludioxonil” (Syngenta Crop Protection, Inc., priority 2003, dated 2004).

Read-outs that look alike come from different tables or passages of the source.

For the assay, the system named is Botrytis cinerea. Briefly: Efficacy against Botrytis cinerea on apple (fruit cv. Golden Delicious). The format is in vivo. The settings on record: 120 h, read-out: % activity observed. From the text:
A synergistic effect exists whenever the action of an active ingredient combination is greater than the sum of the actions of the individual components.
The action to be expected E for a given active ingredient combination obeys the so-called COLBY formula and can be calculated as follows (COLBY, S. R. “Calculating synergistic and antagonistic responses of herbicide combination”. Weeds, Vol. 15, pages 20-22; 1967):
ppm=milligrams of active ingredient (=a.i.) per litre of spray mixture
X=% action by active ingredient I using p ppm of active ingredient
Y=% action by active ingredient II using q ppm of active ingredient.
According to Colby, the expected (additive) action of active ingredients I+II using p+q ppm of active ingredient is [formula]
If the action actually observed (O) is greater than the expected action (E), then the action of the combination is superadditive, i.e. there is a synergistic effect.
In an apple fruit cv. Golden Delicious 3 holes were drilled and each filled with 50 μl droplets of the formulated test composition. Two hours after application 50 μl of a spore suspension of B. cinerea (4×10^5 conidia/ml) were pipetted on the application sites. After an incubation period of 5 days at 20° C. in a growth chamber the % infected fruit area was determined. The activity was calculated relative to the disease rate on untreated apple fruits. The fungicide interactions in the mixture were calculated according to Colby.

On to `N#Cc1c[nH]cc1-c1cccc2c1OC(F)(F)O2` [Fludioxonil, 4-(2,2-difluoro-1,3-benzodioxol-7-yl)pyrrole-3-carbonitrile], for which the inhibition at 0.1 µg/mL is 2%, the inhibition at 0.5 µg/mL came out at 24%, the inhibition at 2.5 µg/mL was found to be 54% and the inhibition at 5 µg/mL amounted to 67%.

For the compound `c1ccc2[nH]c(-c3cscn3)nc2c1` [Thiabendazole, 2-(thiazol-4-yl)benzimidazol], the inhibition at 0.5 µg/mL (Thiabendazole 0.5 mg a.i./l, apple, 5 days at 20° C.) is 5%. Moreover, under “Thiabendazole 1 mg a.i./l, apple, 5 days at 20° C.”, the inhibition at 1 µg/mL was 10%. Where the note is “Thiabendazole 2.5 mg a.i./l, apple, 5 days at 20° C.”, the inhibition at 2.5 µg/mL came out at 10%. Besides, the inhibition at 5 µg/mL (Thiabendazole 5 mg a.i./l, apple, 5 days at 20° C.) was 12%. Moreover, the inhibition at 25 µg/mL (Thiabendazole 25 mg a.i./l, apple, 5 days at 20° C.) is 5%.
